According to EPA's ToxValDB 9.5 (doi:10.2903/j.efsa.2008.145r):
Values after ≈ are worked out from the molar mass of the structure shown.

Assays:
Apis mellifera = conditions: acute; duration: 48 hours; oral; unspecified; mortality
Bibionidae = conditions: chronic/long-term; duration: 28 days
Coturnix japonica = conditions: acute, oral, mortality
Daphnia magna = conditions: chronic/long-term; duration: 21 days; reproduction
Tagia sp. = conditions: acute; duration: 14 days; mortality

## Cc1cccc(C)c1N(Cn1cccn1)C(=O)CCl [Metazachlor]
Apis mellifera
  LD50: > 72.2 µg/piece
Bibionidae
  NOEC: 7.93 mg/kg
Colinus virginianus; acute, oral, mortality
  LD50: > 2000 mg/kg
Colinus virginianus; reproduction developmental
  NOEL: 76.5 mg/kg-day
Coturnix japonica; diet
  LD50: > 449 mg/kg-day
Coturnix japonica
  LD50: > 2000 mg/kg
Daphnia magna
  NOEC: 0.1 mg/L
Oncorhynchus mykiss; acute, duration: 96 hours, mortality
  LC50: 8.5 µg/mL (≈ 30.6 µM)
Oncorhynchus mykiss; chronic/long-term, duration: 28 days, growth
  NOEC: 2.15 mg/L
Rattus norvegicus; acute, mortality
  LD50: > 2000 mg/kg
Rattus norvegicus; chronic
  NOAEL: 79 mg/kg-day
Rattus norvegicus; chronic, duration: 2 years, organ weight
  NOAEL: 8.5 mg/kg-day
Rattus norvegicus; developmental, development
  NOAEL: 50 mg/kg-day
Rattus norvegicus; subchronic, duration: 90 days, oral, organ weight
  NOAEL: 21 mg/kg-day
Tagia sp.
  LC50: > 1000 mg/kg
